{
  "source": "patent US10259779B2",
  "about": "(WAYNE STATE UNIVERSITY, priority 2016, dated 2019)",
  "key": {"[1]": {"biological_target": "HDAC1 (Homo sapiens, UniProt Q13547)", "sequence (Q13547 whole entry)": "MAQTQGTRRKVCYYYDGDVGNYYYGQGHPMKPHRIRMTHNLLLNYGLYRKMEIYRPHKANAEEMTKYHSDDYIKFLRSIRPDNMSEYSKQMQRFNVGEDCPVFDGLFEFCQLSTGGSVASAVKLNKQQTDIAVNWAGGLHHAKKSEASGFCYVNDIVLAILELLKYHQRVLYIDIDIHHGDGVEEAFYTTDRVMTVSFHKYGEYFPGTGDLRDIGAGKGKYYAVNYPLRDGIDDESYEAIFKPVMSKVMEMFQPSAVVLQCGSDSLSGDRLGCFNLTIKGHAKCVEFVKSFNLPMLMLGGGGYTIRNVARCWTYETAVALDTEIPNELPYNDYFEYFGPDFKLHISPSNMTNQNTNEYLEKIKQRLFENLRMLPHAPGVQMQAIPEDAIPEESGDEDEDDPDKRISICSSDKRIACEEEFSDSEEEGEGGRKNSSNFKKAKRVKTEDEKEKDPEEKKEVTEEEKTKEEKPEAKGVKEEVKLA", "assay": "ELISA-based HDAC activity assay, HDAC1"}, "[2]": {"biological_target": "HDAC2 (Homo sapiens, UniProt Q92769)", "sequence (Q92769 whole entry)": "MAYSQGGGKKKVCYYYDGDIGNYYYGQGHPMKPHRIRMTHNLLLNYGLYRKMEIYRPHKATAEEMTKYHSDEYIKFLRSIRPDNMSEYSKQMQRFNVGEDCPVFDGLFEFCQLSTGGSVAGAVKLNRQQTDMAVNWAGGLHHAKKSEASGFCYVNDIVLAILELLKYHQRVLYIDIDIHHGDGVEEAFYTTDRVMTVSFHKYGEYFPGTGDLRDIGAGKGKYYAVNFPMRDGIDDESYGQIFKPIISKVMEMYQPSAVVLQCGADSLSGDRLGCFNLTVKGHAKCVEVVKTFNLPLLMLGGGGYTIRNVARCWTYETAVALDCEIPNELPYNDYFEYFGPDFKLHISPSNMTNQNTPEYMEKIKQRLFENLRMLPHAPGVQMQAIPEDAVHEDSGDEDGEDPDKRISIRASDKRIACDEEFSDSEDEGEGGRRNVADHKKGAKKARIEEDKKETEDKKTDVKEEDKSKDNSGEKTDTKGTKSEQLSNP", "assay": "ELISA-based HDAC activity assay, HDAC2"}, "[3]": {"biological_target": "HDAC3 (Homo sapiens, UniProt O15379)", "sequence (O15379 whole entry)": "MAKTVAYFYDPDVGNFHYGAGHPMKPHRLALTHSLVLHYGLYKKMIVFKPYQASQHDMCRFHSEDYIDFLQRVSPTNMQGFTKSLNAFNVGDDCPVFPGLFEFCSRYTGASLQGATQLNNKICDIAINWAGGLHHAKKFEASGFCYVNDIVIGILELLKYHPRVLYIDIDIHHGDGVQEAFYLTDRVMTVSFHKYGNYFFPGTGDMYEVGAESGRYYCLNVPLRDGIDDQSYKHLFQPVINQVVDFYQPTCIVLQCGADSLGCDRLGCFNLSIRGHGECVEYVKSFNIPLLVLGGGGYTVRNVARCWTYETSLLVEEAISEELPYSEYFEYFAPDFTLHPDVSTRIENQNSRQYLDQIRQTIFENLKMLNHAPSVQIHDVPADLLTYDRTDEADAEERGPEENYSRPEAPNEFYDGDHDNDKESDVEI", "sequence (Q9Y618 whole entry partner)": "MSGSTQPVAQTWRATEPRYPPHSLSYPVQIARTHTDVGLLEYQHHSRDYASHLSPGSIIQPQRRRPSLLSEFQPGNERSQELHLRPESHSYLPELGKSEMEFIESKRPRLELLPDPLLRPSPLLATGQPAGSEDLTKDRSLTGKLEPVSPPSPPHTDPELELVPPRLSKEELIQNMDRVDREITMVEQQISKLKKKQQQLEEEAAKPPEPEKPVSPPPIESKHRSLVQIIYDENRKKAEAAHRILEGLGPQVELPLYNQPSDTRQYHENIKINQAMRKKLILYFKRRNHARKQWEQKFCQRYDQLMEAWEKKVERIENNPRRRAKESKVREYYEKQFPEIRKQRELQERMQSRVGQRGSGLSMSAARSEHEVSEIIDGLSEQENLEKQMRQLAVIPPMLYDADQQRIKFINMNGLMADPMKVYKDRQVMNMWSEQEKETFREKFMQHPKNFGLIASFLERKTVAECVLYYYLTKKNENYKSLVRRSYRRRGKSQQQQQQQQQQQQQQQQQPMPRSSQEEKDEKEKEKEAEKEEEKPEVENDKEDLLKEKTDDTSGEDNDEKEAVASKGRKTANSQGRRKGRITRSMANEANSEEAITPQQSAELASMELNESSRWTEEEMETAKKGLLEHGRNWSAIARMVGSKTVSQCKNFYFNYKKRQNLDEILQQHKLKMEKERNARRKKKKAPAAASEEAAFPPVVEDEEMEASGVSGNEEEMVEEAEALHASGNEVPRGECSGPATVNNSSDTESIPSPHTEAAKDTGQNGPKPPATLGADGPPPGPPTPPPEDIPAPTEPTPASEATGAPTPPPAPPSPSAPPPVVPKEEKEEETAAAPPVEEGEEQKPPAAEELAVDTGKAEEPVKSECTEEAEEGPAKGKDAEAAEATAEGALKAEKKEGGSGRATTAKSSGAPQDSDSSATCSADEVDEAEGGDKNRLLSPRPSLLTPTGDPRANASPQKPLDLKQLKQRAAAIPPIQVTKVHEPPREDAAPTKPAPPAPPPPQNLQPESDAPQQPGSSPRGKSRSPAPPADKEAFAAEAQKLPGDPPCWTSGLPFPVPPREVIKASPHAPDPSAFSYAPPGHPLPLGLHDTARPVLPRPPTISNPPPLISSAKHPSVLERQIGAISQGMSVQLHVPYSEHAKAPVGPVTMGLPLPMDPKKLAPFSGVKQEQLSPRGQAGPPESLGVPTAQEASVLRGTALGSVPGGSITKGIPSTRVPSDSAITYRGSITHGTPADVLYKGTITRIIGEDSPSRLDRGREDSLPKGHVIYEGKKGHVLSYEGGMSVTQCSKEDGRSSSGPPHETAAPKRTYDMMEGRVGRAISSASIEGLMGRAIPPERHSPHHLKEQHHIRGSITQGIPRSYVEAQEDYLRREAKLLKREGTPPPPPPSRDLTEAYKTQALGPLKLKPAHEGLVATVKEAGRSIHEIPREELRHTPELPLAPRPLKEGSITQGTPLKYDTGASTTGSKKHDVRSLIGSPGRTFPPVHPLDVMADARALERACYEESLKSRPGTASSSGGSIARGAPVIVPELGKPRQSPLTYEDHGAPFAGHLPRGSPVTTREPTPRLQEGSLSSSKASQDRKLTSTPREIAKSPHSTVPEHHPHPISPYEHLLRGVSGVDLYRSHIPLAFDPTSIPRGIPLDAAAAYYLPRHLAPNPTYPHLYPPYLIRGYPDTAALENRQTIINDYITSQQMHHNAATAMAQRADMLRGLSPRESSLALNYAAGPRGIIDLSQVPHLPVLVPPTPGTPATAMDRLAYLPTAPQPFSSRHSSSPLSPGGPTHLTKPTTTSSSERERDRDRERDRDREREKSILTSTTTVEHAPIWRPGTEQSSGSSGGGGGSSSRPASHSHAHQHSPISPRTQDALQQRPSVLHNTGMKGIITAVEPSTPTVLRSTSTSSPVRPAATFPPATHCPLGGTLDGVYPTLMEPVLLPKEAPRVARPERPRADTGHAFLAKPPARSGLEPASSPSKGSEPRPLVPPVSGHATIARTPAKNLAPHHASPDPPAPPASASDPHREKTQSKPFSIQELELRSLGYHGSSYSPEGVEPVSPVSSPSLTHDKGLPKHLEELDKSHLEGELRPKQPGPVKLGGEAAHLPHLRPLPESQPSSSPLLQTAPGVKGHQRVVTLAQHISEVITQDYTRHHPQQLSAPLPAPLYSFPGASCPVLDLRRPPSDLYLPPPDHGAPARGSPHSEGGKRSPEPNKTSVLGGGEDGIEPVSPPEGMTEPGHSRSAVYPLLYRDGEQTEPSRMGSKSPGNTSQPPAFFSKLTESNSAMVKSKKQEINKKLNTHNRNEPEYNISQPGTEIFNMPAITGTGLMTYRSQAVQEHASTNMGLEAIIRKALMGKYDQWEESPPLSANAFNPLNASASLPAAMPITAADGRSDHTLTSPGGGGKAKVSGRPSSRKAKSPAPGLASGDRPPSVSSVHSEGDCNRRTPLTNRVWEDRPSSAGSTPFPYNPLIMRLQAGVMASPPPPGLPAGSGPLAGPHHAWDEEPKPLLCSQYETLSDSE", "assay": "ELISA-based HDAC activity assay, HDAC3"}, "[4]": {"biological_target": "T1, recombinant HDAC8 (Homo sapiens, UniProt Q9BY41)", "T1 construct": "purchased BPS Bioscience", "T1 sequence (Q9BY41 1-377)": "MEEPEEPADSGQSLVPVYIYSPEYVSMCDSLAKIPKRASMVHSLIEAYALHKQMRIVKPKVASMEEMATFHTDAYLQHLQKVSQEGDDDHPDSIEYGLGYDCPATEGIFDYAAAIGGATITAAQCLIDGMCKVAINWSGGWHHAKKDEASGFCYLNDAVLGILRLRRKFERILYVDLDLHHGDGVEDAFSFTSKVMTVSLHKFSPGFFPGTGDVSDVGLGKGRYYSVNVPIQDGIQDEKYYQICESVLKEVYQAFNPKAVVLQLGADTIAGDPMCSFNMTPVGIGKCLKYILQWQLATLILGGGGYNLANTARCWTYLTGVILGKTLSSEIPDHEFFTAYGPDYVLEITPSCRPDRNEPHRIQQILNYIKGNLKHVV", "assay": "Recombinant HDAC8 inhibition (HDAC-Glo)", "format": "biochemical", "procedure": "Inhibitory activity with HDAC8 was measured using the following procedure. In a half area 96-well white opaque plate, recombinant HDAC8 (75 ng, BPS Bioscience) was incubated in HDAC-Glo™ buffer (39 μL) with inhibitor in DMSO (1 μL), or DMSO alone (1 μL) as a control, for 15 minutes at room temperature. HDAC-Glo™ reagent (10 μL) was added to each reaction and incubated for 30 min at room temperature. Luminescent signal was measured 30 minutes after adding the substrate reagent using a Geniosplus Fluorimeter (Tecan) at optimal gain. To determine IC50, the luminescent signal was first background corrected with the signal from a background control reaction where no HDAC8 enzyme was added."}, "[5]": {"test_system": "HDAC proteins in HeLa cell lysates", "assay": "Global HDAC inhibition with HeLa cell lysates (HDAC-Glo I/II substrate)", "format": "biochemical", "settings": "for Deacetylase activity (%): Hela Lysate", "procedure": "HDAC activity was measured using the commercially available HDAC-Glo™ I/II substrate (Promega).\nLysates were prepared according to the reported procedure.^28 HeLa-S3 cells (purchased from Biovest) were lysed in lysis buffer (1×10^9 cells in 10 mL lysis buffer; 50 mM Tris-HCl, pH 8.0, 10% glycerol, 150 mM NaCl, 0.5% Triton X-100, and 1× protease inhibitor cocktail (GenDEPOT)) with rotation at 4° C. for 30 min. Cell debris was removed by centrifugation at 12000 rpm at 4° C. for 30 min. Protein concentration of the supernatant was determined using Bio-Rad protein assay (BioRad, Bradford reagent). Lysates were stored at −80° C.\nTo measure global HDAC inhibition, HeLa cell lysates (1 μg total protein) were mixed with HDAC-Glo™ buffer in polystyrene 96-well half area white plate (Corning) to a final volume of 12 μL, followed by addition of inhibitors in DMSO (0.5 μL) and incubation for 15 min at room temperature without rocking. An uninhibited control reaction was also included that contained DMSO (0.5 μL). Finally, deacetylase activity was measured using the HDAC-Glo™ assay kit (Promega) as per the manufacturer's protocol. Specifically, the HDAC-Glo™ substrate (1 mL) and developer ([…]) were first premixed to form the HDAC-Glo™ reagents. Then, to monitor deacetylase activity, HDAC-Glo™ reagent (5 μL) and HDAC-Glo™ buffer (7.5 μL) were added to each well (25 μL total volume) and incubated for 35 min at room temperature without rocking. The deacetylase activity was measured as luminescent signal using a GeniosPlus Fluorimeter (Tecan) at optimal gain. The concentrations of inhibitors reported in the dose-dependent studies (Table 2) are final concentrations after addition of HDAC-Glo™ reagent HDAC-Glo™ buffer."}, "[6]": {"settings": "read-out: Deacetylase activity (%) HDAC1"}, "[7]": {"settings": "read-out: Deacetylase activity (%) HDAC2"}, "[8]": {"settings": "read-out: Deacetylase activity (%) HDAC3"}},
  "data": [
    {"smiles": "O=C(CCC(CCCC(=O)Nc1ccccc1)Cc1ccccc1)NO", "note": "(racemic) [Compound 1f, 4-benzyl-N^1-hydroxy-N^8-phenyloctanediamide]", "values": [
      {"measurement": "IC50", "setting": "[1]; potency (IC50) with HDAC1, text, Table 4 value in μM", "result": 29, "unit": "µM"},
      {"measurement": "activity at 5 µM", "setting": "[1]; [6]", "result": "87 ± 4", "unit": "%"},
      {"measurement": "activity at 10 µM", "setting": "[1]; [6]", "result": "75 ± 5", "unit": "%"},
      {"measurement": "activity at 20 µM", "setting": "[1]; [6]", "result": "58 ± 5", "unit": "%"},
      {"measurement": "activity at 40 µM", "setting": "[1]; [6]", "result": "44 ± 2", "unit": "%"},
      {"measurement": "activity at 80 µM", "setting": "[1]; [6]", "result": "27 ± 2", "unit": "%"},
      {"measurement": "activity at 160 µM", "setting": "[1]; [6]", "result": "16 ± 1", "unit": "%"},
      {"measurement": "IC50", "setting": "[2]", "result": 32, "unit": "µM"},
      {"measurement": "activity at 5 µM", "setting": "[2]; [7]", "result": "92 ± 4", "unit": "%"},
      {"measurement": "activity at 10 µM", "setting": "[2]; [7]", "result": "74 ± 4", "unit": "%"},
      {"measurement": "activity at 20 µM", "setting": "[2]; [7]", "result": "60 ± 1", "unit": "%"},
      {"measurement": "activity at 40 µM", "setting": "[2]; [7]", "result": "47 ± 1", "unit": "%"},
      {"measurement": "activity at 80 µM", "setting": "[2]; [7]", "result": "27 ± 5", "unit": "%"},
      {"measurement": "activity at 160 µM", "setting": "[2]; [7]", "result": "20 ± 1", "unit": "%"},
      {"measurement": "IC50", "setting": "[3]", "result": 42, "unit": "µM"},
      {"measurement": "activity at 5 µM", "setting": "[3]; [8]", "result": "90 ± 3", "unit": "%"},
      {"measurement": "activity at 10 µM", "setting": "[3]; [8]", "result": "87 ± 4", "unit": "%"},
      {"measurement": "activity at 20 µM", "setting": "[3]; [8]", "result": "63 ± 5", "unit": "%"},
      {"measurement": "activity at 40 µM", "setting": "[3]; [8]", "result": "55 ± 3", "unit": "%"},
      {"measurement": "activity at 80 µM", "setting": "[3]; [8]", "result": "33 ± 2", "unit": "%"},
      {"measurement": "activity at 160 µM", "setting": "[3]; [8]", "result": "19 ± 2", "unit": "%"},
      {"measurement": "IC50", "setting": "[4]", "result": 57, "unit": "nM"},
      {"measurement": "activity at 0.1 µM", "setting": "[4]; 1.0 × 10^−7 M, read-out: Deacetylase activity (%) HDAC8", "result": "34 ± 2", "unit": "%"},
      {"measurement": "activity at 0.0125 µM", "setting": "[4]; 1.25 × 10^−8 M, read-out: Deacetylase activity (%) HDAC8", "result": "87 ± 4", "unit": "%"},
      {"measurement": "activity at 0.2 µM", "setting": "[4]; 2.0 × 10^−7 M, read-out: Deacetylase activity (%) HDAC8", "result": "21 ± 1", "unit": "%"},
      {"measurement": "activity at […]", "setting": "[4]; 2.5 × 10^−8 M, read-out: Deacetylase activity (%) HDAC8", "result": "73 ± 2", "unit": "%"},
      {"measurement": "activity at 0.05 µM", "setting": "[4]; 5.0 × 10^−8 M, read-out: Deacetylase activity (%) HDAC8", "result": "51 ± 1", "unit": "%"},
      {"measurement": "HDAC8 fold selectivity HDAC1", "setting": "[4]; HDAC8 over HDAC1, calculated from IC50 values", "result": 510, "unit": "fold"},
      {"measurement": "HDAC8 fold selectivity HDAC2", "setting": "[4]; HDAC8 over HDAC2, calculated from IC50 values", "result": 670, "unit": "fold"},
      {"measurement": "HDAC8 fold selectivity HDAC3", "setting": "[4]; HDAC8 over HDAC3, calculated from IC50 values", "result": 740, "unit": "fold"},
      {"measurement": "fold selectivity for HDAC8 over HDAC1, 2, and 3", "setting": "[4]; HDAC8 versus HDAC1, 2, 3", "result": "≥ 510", "unit": "fold"},
      {"measurement": "Deacetylase activity (%)", "setting": "[5]; 1.0 × 10^−4 M", "result": "35 ± 5", "unit": "%"},
      {"measurement": "Deacetylase activity (%)", "setting": "[5]; 1.25 × 10^−5 M", "result": "88 ± 4", "unit": "%"},
      {"measurement": "Deacetylase activity (%)", "setting": "[5]; 2.0 × 10^−4 M", "result": "19 ± 2", "unit": "%"},
      {"measurement": "Deacetylase activity (%)", "setting": "[5]; 5.0 × 10^−5 M", "result": "58 ± 4", "unit": "%"},
      {"measurement": "IC50", "setting": "[5]; HeLa cell lysates", "result": "62 ± 1", "unit": "µM"},
      {"measurement": "Deacetylase activity (%)", "setting": "[5]; […] 10^−5 M", "result": "74 ± 5", "unit": "%"}
    ]}
  ]
}
